From ChEMBL document CHEMBL3045446, “In vitro antimicrobial and antimycobacterial activity of some chalcones and their derivatives” (2013)
≈ marks a conversion by molar mass, not a printed value.

Tests used:
Format in all cases: functional
[1] = test system: Shigella flexneri; assay: Antimicrobial activity against Shigella flexneri MTCC1457 assessed as growth inhibition after 24 hr by agar streak dilution method; conditions: MTCC1457, 24 h
[2] = test system: Bacillus cereus; assay: Antimicrobial activity against Bacillus cereus MTCC 430 assessed as growth inhibition after 24 hr by agar streak dilution method; conditions: MTCC 430, 24 h
[3] = test system: Staphylococcus aureus; assay: Antimicrobial activity against Staphylococcus aureus MTCC 96 assessed as growth inhibition after 24 hr by agar streak dilution method; conditions: MTCC 96, 24 h
[4] = test system: Salmonella typhi; assay: Antimicrobial activity against Salmonella enterica subsp. enterica serovar Typhi MTCC 733 assessed as growth inhibition after 24 hr by agar streak dilution method; conditions: MTCC 733, 24 h
[5] = test system: Shigella flexneri; assay: Antimicrobial activity against Shigella flexneri MTCC1457 assessed as diameter of growth inhibition zone after 24 hr
[6] = test system: Mycobacterium tuberculosis; assay: Antituberculosis activity against Mycobacterium tuberculosis H37Rv assessed as growth inhibition after 12 to 28 days by L-J MIC method; conditions: for MIC: Mycobacterium tuberculosis, H37Rv
[7] = test system: Proteus vulgaris; assay: Antimicrobial activity against Proteus vulgaris MTCC 1771 assessed as diameter of growth inhibition zone after 24 hr
[8] = test system: Candida albicans; assay: Antimicrobial activity against Candida albicans MTCC 183 assessed as growth inhibition after 48 hr by agar streak dilution method; conditions: MTCC 183, 48 h
[9] = test system: Aspergillus niger; assay: Antimicrobial activity against Aspergillus niger MTCC 282 assessed as growth inhibition after 48 hr by agar streak dilution method; conditions: MTCC 282, 48 h
[10] = test system: Escherichia coli; assay: Antimicrobial activity against Escherichia coli MTCC 739 assessed as diameter of growth inhibition zone after 24 hr
[11] = test system: Aspergillus clavatus; assay: Antimicrobial activity against Aspergillus clavatus MTCC 1323 assessed as growth inhibition after 48 hr by agar streak dilution method; conditions: MTCC 1323, 48 h
[12] = test system: Bacillus cereus; assay: Antimicrobial activity against Bacillus cereus MTCC 430 assessed as diameter of growth inhibition zone after 24 hr
[13] = test system: Pseudomonas aeruginosa; assay: Antimicrobial activity against Pseudomonas aeruginosa MTCC 741 assessed as diameter of growth inhibition zone after 24 hr
[14] = test system: Proteus vulgaris; assay: Antimicrobial activity against Proteus vulgaris MTCC 1771 assessed as growth inhibition after 24 hr by agar streak dilution method; conditions: MTCC 1771, 24 h
[15] = test system: Pseudomonas aeruginosa; assay: Antimicrobial activity against Pseudomonas aeruginosa MTCC 741 assessed as growth inhibition after 24 hr by agar streak dilution method; conditions: MTCC 741, 24 h
[16] = test system: Aspergillus fumigatus; assay: Antimicrobial activity against Aspergillus fumigatus MTCC 343 assessed as diameter of growth inhibition zone after 48 hr
[17] = test system: Aspergillus fumigatus; assay: Antimicrobial activity against Aspergillus fumigatus MTCC 343 assessed as growth inhibition after 48 hr by agar streak dilution method; conditions: MTCC 343, 48 h
[18] = test system: Klebsiella pneumoniae; assay: Antimicrobial activity against Klebsiella pneumoniae MTCC 109 assessed as diameter of growth inhibition zone after 24 hr
[19] = test system: Aspergillus niger; assay: Antimicrobial activity against Aspergillus niger MTCC 282 assessed as diameter of growth inhibition zone after 48 hr
[20] = test system: Klebsiella pneumoniae; assay: Antimicrobial activity against Klebsiella pneumoniae MTCC 109 assessed as growth inhibition after 24 hr by agar streak dilution method; conditions: MTCC 109, 24 h
[21] = test system: Escherichia coli; assay: Antimicrobial activity against Escherichia coli MTCC 739 assessed as growth inhibition after 24 hr by agar streak dilution method; conditions: MTCC 739, 24 h
[22] = test system: Staphylococcus aureus; assay: Antimicrobial activity against Staphylococcus aureus MTCC 96 assessed as diameter of growth inhibition zone after 24 hr
[23] = test system: Candida albicans; assay: Antimicrobial activity against Candida albicans MTCC 183 assessed as diameter of growth inhibition zone after 48 hr
[24] = test system: Aspergillus clavatus; assay: Antimicrobial activity against Aspergillus clavatus MTCC 1323 assessed as diameter of growth inhibition zone after 48 hr
[25] = test system: Salmonella typhi; assay: Antimicrobial activity against Salmonella enterica subsp. enterica serovar Typhi MTCC 733 assessed as diameter of growth inhibition zone after 24 hr

| Compound | MIC [1] [µg/mL] | MIC [2] [µg/mL] | MIC [3] [µg/mL] | MIC [4] [µg/mL] | diameter of the inhibition zone (DIZ) [5] [mm] | growth inhibition (GI) [6] [%] | MIC [6] [µg/mL] | diameter of the inhibition zone (DIZ) [7] [mm] | MIC [8] [µg/mL] | MIC [9] [µg/mL] | diameter of the inhibition zone (DIZ) [10] [mm] | MIC [11] [µg/mL] | diameter of the inhibition zone (DIZ) [12] [mm] | diameter of the inhibition zone (DIZ) [13] [mm] | MIC [14] [µg/mL] | MIC [15] [µg/mL] | diameter of the inhibition zone (DIZ) [16] [mm] | MIC [17] [µg/mL] | diameter of the inhibition zone (DIZ) [18] [mm] | diameter of the inhibition zone (DIZ) [19] [mm] | also measured |
| --- | --- | --- | --- | --- | --- | --- | --- | --- | --- | --- | --- | --- | --- | --- | --- | --- | --- | --- | --- | --- | --- |
| COc1ccc(C2CC(c3ccc(Nc4cc(=O)oc5ccccc45)cc3)=NN2C(C)=O)cc1OC (configuration not stated) | 12.5 (≈ 25.9 µM) | 50 (≈ 103 µM) | 25 (≈ 51.7 µM) | 25 (≈ 51.7 µM) | 23 | 98 | 100 (≈ 207 µM) | 20 | 25 (≈ 51.7 µM) | 25 (≈ 51.7 µM) | 21 | 50 (≈ 103 µM) | 18 | 20 | 50 (≈ 103 µM) | 50 (≈ 103 µM) | 19 | 50 (≈ 103 µM) | 22 | 23 | MIC [20]: 25 µg/mL (≈ 51.7 µM); MIC [21]: 25 µg/mL (≈ 51.7 µM); diameter of the inhibition zone (DIZ) [22]: 20 mm; diameter of the inhibition zone (DIZ) [23]: 22 mm; diameter of the inhibition zone (DIZ) [24]: 20 mm; diameter of the inhibition zone (DIZ) [25]: 21 mm |
| O=C(/C=C/c1ccc(O)cc1O)c1ccc(Nc2cc(=O)oc3ccccc23)cc1 | 100 (≈ 250 µM) | 100 (≈ 250 µM) | 50 (≈ 125 µM) | 25 (≈ 62.6 µM) | 17 | 95 | 500 (≈ 1250 µM) | 20 | 100 (≈ 250 µM) | 50 (≈ 125 µM) | 19 | 25 (≈ 62.6 µM) | 16 | 19 | 25 (≈ 62.6 µM) | 25 (≈ 62.6 µM) | 22 | 25 (≈ 62.6 µM) | 21 | 19 | MIC [20]: 25 µg/mL (≈ 62.6 µM); MIC [21]: 50 µg/mL (≈ 125 µM); diameter of the inhibition zone (DIZ) [22]: 20 mm; diameter of the inhibition zone (DIZ) [23]: 16 mm; diameter of the inhibition zone (DIZ) [24]: 20 mm; diameter of the inhibition zone (DIZ) [25]: 21 mm |
| NC(=O)c1cnccn1 [PYRAZINAMIDE] |  |  |  |  |  | 99 | 6.25 (≈ 50.8 µM) |  |  |  |  |  |  |  |  |  |  |  |  |  |  |
| Nc1nc(-c2ccc(Nc3cc(=O)oc4ccccc34)cc2)cc(-c2ccccc2O)n1 | 25 (≈ 59.2 µM) | 50 (≈ 118 µM) | 50 (≈ 118 µM) | 100 (≈ 237 µM) | 20 | 97 | 250 (≈ 592 µM) | 19 | 50 (≈ 118 µM) | 25 (≈ 59.2 µM) | 19 | 6.25 (≈ 14.8 µM) | 19 | 18 | 50 (≈ 118 µM) | 50 (≈ 118 µM) | 23 | 12.5 (≈ 29.6 µM) | 21 | 21 | MIC [20]: 12.5 µg/mL (≈ 29.6 µM); MIC [21]: 50 µg/mL (≈ 118 µM); diameter of the inhibition zone (DIZ) [22]: 18 mm; diameter of the inhibition zone (DIZ) [23]: 18 mm; diameter of the inhibition zone (DIZ) [24]: 25 mm; diameter of the inhibition zone (DIZ) [25]: 17 mm |
| N#Cc1c(-c2ccc(F)cc2)cc(-c2ccc(Nc3cc(=O)oc4ccccc34)cc2)nc1N | 12.5 (≈ 27.9 µM) | 3.12 (≈ 6.96 µM) | 6.25 (≈ 13.9 µM) | 6.25 (≈ 13.9 µM) | 24 | 97 | 50 (≈ 111 µM) | 29 | 12.5 (≈ 27.9 µM) | 12.5 (≈ 27.9 µM) | 27 | 6.25 (≈ 13.9 µM) | 28 | 29 | 3.12 (≈ 6.96 µM) | 3.12 (≈ 6.96 µM) | 28 | 3.12 (≈ 6.96 µM) | 28 | 23 | MIC [20]: 3.12 µg/mL (≈ 6.96 µM); MIC [21]: 3.12 µg/mL (≈ 6.96 µM); diameter of the inhibition zone (DIZ) [22]: 25 mm; diameter of the inhibition zone (DIZ) [23]: 22 mm; diameter of the inhibition zone (DIZ) [24]: 28 mm; diameter of the inhibition zone (DIZ) [25]: 26 mm |
| Cc1ccc(-c2cc(-c3ccc(Nc4cc(=O)oc5ccccc45)cc3)nc(N)n2)cc1 | 25 (≈ 59.5 µM) | 50 (≈ 119 µM) | 50 (≈ 119 µM) | 50 (≈ 119 µM) | 22 | 98 | 200 (≈ 476 µM) | 21 | 50 (≈ 119 µM) | 25 (≈ 59.5 µM) | 15 | 100 (≈ 238 µM) | 19 | 19 | 25 (≈ 59.5 µM) | 50 (≈ 119 µM) | 18 | 50 (≈ 119 µM) | 16 | 21 | MIC [20]: 100 µg/mL (≈ 238 µM); MIC [21]: 100 µg/mL (≈ 238 µM); diameter of the inhibition zone (DIZ) [22]: 18 mm; diameter of the inhibition zone (DIZ) [23]: 16 mm; diameter of the inhibition zone (DIZ) [24]: 16 mm; diameter of the inhibition zone (DIZ) [25]: 18 mm |
| O=C(/C=C/c1ccccc1Br)c1ccc(Nc2cc(=O)oc3ccccc23)cc1 | 100 (≈ 224 µM) | 100 (≈ 224 µM) | 100 (≈ 224 µM) | 100 (≈ 224 µM) | 12 | 97 | 500 (≈ 1120 µM) | <10 | 50 (≈ 112 µM) | 100 (≈ 224 µM) | 11 | 100 (≈ 224 µM) | 11 | <10 | 100 (≈ 224 µM) | 100 (≈ 224 µM) | 15 | 100 (≈ 224 µM) | 14 | 12 | MIC [20]: 100 µg/mL (≈ 224 µM); MIC [21]: 100 µg/mL (≈ 224 µM); diameter of the inhibition zone (DIZ) [22]: 13 mm; diameter of the inhibition zone (DIZ) [23]: 18 mm; diameter of the inhibition zone (DIZ) [24]: 12 mm; diameter of the inhibition zone (DIZ) [25]: 11 mm |
| NNC(=O)c1ccncc1 [ISONIAZID] |  |  |  |  |  | 99 | 0.2 (≈ 1.46 µM) |  |  |  |  |  |  |  |  |  |  |  |  |  |  |
| O=C(O)c1cn(C2CC2)c2cc(N3CCNCC3)c(F)cc2c1=O [CIPROFLOXACIN] | ≤ 3 | 1 (≈ 3.02 µM) | 1 (≈ 3.02 µM) | 1 (≈ 3.02 µM) | 32 |  |  | 31 |  |  | 32 |  | 31 | 33 | 1 (≈ 3.02 µM) | 1 (≈ 3.02 µM) |  |  | 33 |  | MIC [20]: 1 µg/mL (≈ 3.02 µM); diameter of the inhibition zone (DIZ) [22]: 30 mm; diameter of the inhibition zone (DIZ) [25]: 30 mm |
| CO[C@H]1/C=C/O[C@@]2(C)Oc3c(C)c(O)c4c(O)c(c(/C=N/N5CCN(C)CC5)c(O)c4c3C2=O)NC(=O)/C(C)=C\C=C\[C@H](C)[C@H](O)[C@@H](C)[C@@H](O)[C@@H](C)[C@H](OC(C)=O)[C@@H]1C [RIFAMPIN] |  |  |  |  |  | 99 | 0.25 (≈ 0.304 µM) |  |  |  |  |  |  |  |  |  |  |  |  |  |  |
| CC(=O)N1CCN(c2ccc(OCC3COC(Cn4ccnc4)(c4ccc(Cl)cc4Cl)O3)cc2)CC1 (configuration not stated) [KETOCONAZOLE] |  |  |  |  |  |  |  |  | 1 (≈ 1.88 µM) | ≤ 3 |  | 1 (≈ 1.88 µM) |  |  |  |  | 29 | 1 (≈ 1.88 µM) |  | 30 | diameter of the inhibition zone (DIZ) [23]: 33 mm; diameter of the inhibition zone (DIZ) [24]: 31 mm |
| CC[C@@H](CO)NCCN[C@@H](CC)CO [ETHAMBUTOL] |  |  |  |  |  | 99 | 3.12 (≈ 15.3 µM) |  |  |  |  |  |  |  |  |  |  |  |  |  |  |
